# Assay results published in PubChem BioAssay (NCI).
#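 Method: 48-hour compound exposure of cells in 96-well plates, five concentrations, linear interpolation of endpoints. The concentration for 50% growth inhibition is given as GI50. TGI marks complete inhibition of growth.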
# How the values were obtained:
# Test in all cases: growth of human tumour cells (NCI), 48 h
# [1] = system: SR leukemia
# [2] = system: U251 CNS
# [3] = system: HL-60(TB) leukemia
# [4] = system: MDA-MB-231 breast
# [5] = system: SK-MEL-5 melanoma
# [6] = system: NCI-H226 lung
# [7] = system: HCT-15 colon
# [8] = system: CAKI-1 renal
# [9] = system: ACHN renal
# [10] = system: SF-539 CNS
# [11] = system: SF-268 CNS
# [12] = system: MALME-3M melanoma
# [13] = system: A498 renal
# [14] = system: SK-OV-3 ovarian
# [15] = system: NCI/ADR-RES ovarian
# [16] = system: NCI-H522 lung
# [17] = system: SK-MEL-28 melanoma
# [18] = system: SNB-19 CNS
# [19] = system: TK-10 renal
# [20] = system: KM12 colon
# [21] = system: BT-549 breast
# [22] = system: EKVX NSCLC
# [23] = system: OVCAR-8 ovarian
# [24] = system: A549 NSCLC
# [25] = system: HCC-2998 colon
# [26] = system: MDA-MB-435
# [27] = system: UACC-62 melanoma
# [28] = system: MOLT-4 leukemia
# [29] = system: PC-3 prostate
# [30] = system: UO-31 renal
# [31] = system: NCI-H460 lung
# [32] = system: SNB-75 CNS
# [33] = system: M14 melanoma
# [34] = system: UACC-257 melanoma
# [35] = system: SF-295 CNS
# [36] = system: SN12C renal
# [37] = system: COLO 205 colon
# [38] = system: RXF 393 renal
# [39] = system: SK-MEL-2 melanoma
# [40] = system: OVCAR-3 ovarian
# [41] = system: SW-620 colon
# [42] = system: OVCAR-4 ovarian
# [43] = system: HS 578T breast
# [44] = system: HCT-116 colon
# [45] = system: HOP-62 NSCLC
# [46] = system: IGROV1 ovarian
# [47] = system: CCRF-CEM leukemia
# [48] = system: T-47D breast
# [49] = system: DU-145 prostate
# [50] = system: MCF7 breast
# [51] = system: OVCAR-5 ovarian
# [52] = system: RPMI-8226 leukemia
# [53] = system: NCI-H23 lung
# [54] = system: LOX IMVI melanoma
# [55] = system: 786-0 renal
# [56] = system: HOP-92 NSCLC
# [57] = system: HT29 colon
# [58] = system: K-562 leukemia
smiles,measurement,setting,value
CCCCNc1ncnc2c1cnn2-c1ccccc1,GI50,[1],0.444 µM
same,TGI,[1],> 100 µM
same,GI50,[2],2.84 µM
same,TGI,[2],> 61.8 µM
same,GI50,[3],2.35 µM
same,TGI,[3],53 µM
same,GI50,[4],16.9 µM
same,TGI,[4],73 µM
same,GI50,[5],1.19 µM
same,TGI,[5],11.1 µM
same,GI50,[6],13.7 µM
same,TGI,[6],86.1 µM
same,GI50,[7],0.947 µM
same,TGI,[7],> 50.1 µM
same,GI50,[8],2.09 µM
same,TGI,[8],> 40.8 µM
same,GI50,[9],9.6 µM
same,TGI,[9],> 100 µM
same,GI50,[10],4.05 µM
same,TGI,[10],> 100 µM
same,GI50,[11],9.78 µM
same,TGI,[11],> 84.5 µM
same,GI50,[12],6.18 µM
same,TGI,[12],> 72.5 µM
same,GI50,[13],4.32 µM
same,TGI,[13],> 100 µM
same,GI50,[14],3.2 µM
same,TGI,[14],31.2 µM
same,GI50,[15],0.514 µM
same,TGI,[15],5.26 µM
same,GI50,[16],0.799 µM
same,TGI,[16],9.94 µM
same,GI50,[17],10.1 µM
same,TGI,[17],> 100 µM
same,GI50,[18],8.69 µM
same,TGI,[18],> 100 µM
same,GI50,[19],5.35 µM
same,TGI,[19],> 57.9 µM
same,GI50,[20],0.474 µM
same,TGI,[20],27.2 µM
same,GI50,[21],6.71 µM
same,TGI,[21],> 69 µM
same,GI50,[22],7.72 µM
same,TGI,[22],> 86.6 µM
same,GI50,[23],4.62 µM
same,TGI,[23],> 88.1 µM
same,GI50,[24],5.29 µM
same,TGI,[24],> 92.8 µM
same,GI50,[25],5.72 µM
same,TGI,[25],37.8 µM
same,GI50,[26],0.237 µM
same,TGI,[26],0.7 µM
same,GI50,[27],5.04 µM
same,TGI,[27],> 100 µM
same,GI50,[28],3.75 µM
same,TGI,[28],> 100 µM
same,GI50,[29],2.38 µM
same,TGI,[29],56.9 µM
same,GI50,[30],7.44 µM
same,TGI,[30],71.2 µM
same,GI50,[31],1.61 µM
same,TGI,[31],> 43.1 µM
same,GI50,[32],2.11 µM
same,TGI,[32],39.9 µM
same,GI50,[33],1.42 µM
same,TGI,[33],> 45.8 µM
same,GI50,[34],11 µM
same,TGI,[34],> 83.8 µM
same,GI50,[35],1.88 µM
same,TGI,[35],20.3 µM
same,GI50,[36],6.18 µM
same,TGI,[36],> 100 µM
same,GI50,[37],1.15 µM
same,TGI,[37],11.7 µM
same,GI50,[38],1.97 µM
same,TGI,[38],8.26 µM
same,GI50,[39],2.82 µM
same,TGI,[39],> 100 µM
same,GI50,[40],1.46 µM
same,TGI,[40],5.16 µM
same,GI50,[41],0.709 µM
same,TGI,[41],> 100 µM
same,GI50,[42],18.3 µM
same,TGI,[42],> 100 µM
same,GI50,[43],3.48 µM
same,TGI,[43],58.2 µM
same,GI50,[44],1.32 µM
same,TGI,[44],> 100 µM
same,GI50,[45],3.42 µM
same,TGI,[45],> 100 µM
same,GI50,[46],2.22 µM
same,TGI,[46],> 100 µM
same,GI50,[47],5.24 µM
same,TGI,[47],> 100 µM
same,GI50,[48],3.71 µM
same,TGI,[48],52.8 µM
same,GI50,[49],3.47 µM
same,TGI,[49],32.1 µM
same,GI50,[50],2.11 µM
same,TGI,[50],> 100 µM
same,GI50,[51],12.9 µM
same,TGI,[51],> 100 µM
same,GI50,[52],3.76 µM
same,TGI,[52],> 28.3 µM
same,GI50,[53],3.34 µM
same,TGI,[53],> 100 µM
same,GI50,[54],3.7 µM
same,TGI,[54],> 100 µM
same,GI50,[55],8.9 µM
same,TGI,[55],53 µM
same,GI50,[56],3.21 µM
same,TGI,[56],55.6 µM
same,GI50,[57],0.565 µM
same,TGI,[57],13.8 µM
CO[C@@]12C[C@H](CNC(=O)c3ccc[nH]3)O[C@@H]1NC(=O)N2,TGI,[1],> 100 µM
same,TGI,[2],> 100 µM
same,TGI,[3],> 100 µM
same,TGI,[4],> 100 µM
same,TGI,[58],> 100 µM
same,TGI,[5],> 100 µM
same,TGI,[6],> 100 µM
same,TGI,[7],> 100 µM
same,TGI,[8],> 100 µM
same,TGI,[9],> 100 µM
same,TGI,[10],> 100 µM
same,TGI,[11],> 100 µM
same,TGI,[12],> 100 µM
same,TGI,[13],> 100 µM
same,TGI,[14],> 100 µM
same,TGI,[15],> 100 µM
same,TGI,[16],> 100 µM
same,TGI,[17],> 100 µM
same,TGI,[18],> 100 µM
same,TGI,[19],> 100 µM
same,TGI,[20],> 100 µM
same,TGI,[21],> 100 µM
same,TGI,[22],> 100 µM
same,TGI,[23],> 100 µM
same,TGI,[24],> 100 µM
same,TGI,[25],> 100 µM
same,TGI,[26],> 100 µM
same,TGI,[27],> 100 µM
same,TGI,[28],> 100 µM
same,TGI,[29],> 100 µM
same,TGI,[30],> 100 µM
same,TGI,[31],> 100 µM
same,TGI,[32],> 100 µM
same,TGI,[33],> 100 µM
same,TGI,[34],> 100 µM
same,TGI,[35],> 100 µM
same,TGI,[36],> 100 µM
same,TGI,[37],> 100 µM
same,TGI,[39],> 100 µM
same,TGI,[40],> 100 µM
same,TGI,[41],> 100 µM
same,TGI,[42],> 100 µM
same,TGI,[43],> 100 µM
same,TGI,[44],> 100 µM
same,TGI,[45],> 100 µM
same,TGI,[46],> 100 µM
same,TGI,[48],> 100 µM
same,TGI,[49],> 100 µM
same,TGI,[50],> 100 µM
same,TGI,[51],> 100 µM
same,TGI,[52],> 100 µM
same,TGI,[53],> 100 µM
same,TGI,[54],> 100 µM
same,TGI,[55],> 100 µM
same,TGI,[56],> 100 µM
same,TGI,[57],> 100 µM
